From ChEMBL document CHEMBL6182867, “Discovery of ultra short β-peptoids with selective activity against drug-resistant Mycobacterium tuberculosis” (Eur J Med Chem, 2025)
≈ marks a conversion by molar mass, not a printed value. Calls of active or inactive are those of the source. The rule behind the calls is not given here.

Legend:
[1] = system: Mycobacterium marinum; test: Antibacterial activity against Mycobacterium marinum ATCC 927 incubated for 5 days by microplate alamar blue assay; type: functional; details: ATCC 927, 120 h, time 5 day
[2] = system: Mycobacteroides abscessus; test: Antibacterial activity against Mycobacterium abscessus ATCC 19977 assessed as growth inhibition at 100 ug/ml incubated for 3 days by microplate alamar blue assay relative to control; type: functional; details: ATCC 19977, 72 h, time 3 day, read-out: GI
[3] = system: Mycobacterium tuberculosis; test: Antitubercular activity against Mycobacterium tuberculosis KMA 5282 by microplate alamar blue assay; type: functional
[4] = system: Mycobacterium tuberculosis; test: Synergistic antitubercular activity against Mycobacterium tuberculosis H37Rv in presence of isoniazid by microplate alamar blue assay (reference value: 3.08 uM); type: functional
[5] = system: Mitochondrial membrane; test: Induction of […] membrane potential loss in Mycobacterium tuberculosis H37Rv at <=MIC measured after 15 mins by DiOC2 dye based fluorescence assay; type: cell membranes
[6] = system: Klebsiella aerogenes; test: Antibacterial activity against Enterobacter aerogenes by microplate alamar blue assay; type: functional
[7] = system: Mycobacterium kansasii; test: Antibacterial activity against Mycobacterium kansasii ATCC 12478 assessed as growth inhibition at 100 ug/ml incubated for 7 days by microplate alamar blue assay relative to control; type: functional; details: ATCC 12478, 168 h, time 7 day, read-out: GI
[8] = system: Mycobacterium tuberculosis; test: Antitubercular activity against Mycobacterium tuberculosis H37Rv ATCC 27294 by microplate alamar blue assay; type: functional
[9] = system: Mycobacteroides chelonae; test: Antibacterial activity against Mycobacteroides chelonae ATCC 35752 incubated for 3 days by microplate alamar blue assay; type: functional; details: ATCC 35752, 72 h, time 3 day
[10] = system: Mycobacterium tuberculosis; test: Antitubercular activity against Mycobacterium tuberculosis KMA 4439 by microplate alamar blue assay; type: functional
[11] = system: Mycobacterium tuberculosis; test: Antitubercular activity against Mycobacterium tuberculosis KMA 3899 by microplate alamar blue assay; type: functional
[12] = system: Mycobacterium marinum; test: Antibacterial activity against Mycobacterium marinum ATCC 927 assessed as growth inhibition at 100 ug/ml incubated for 5 days by microplate alamar blue assay relative to control; type: functional; details: ATCC 927, 120 h, time 5 day, read-out: GI
[13] = system: Mycobacterium tuberculosis; test: Synergistic antitubercular activity against Mycobacterium tuberculosis H37Rv in presence of rifampin by microplate alamar blue assay (reference value: 3.08 uM); type: functional
[14] = system: Mitochondrial membrane; test: Induction of […] membrane potential loss in Mycobacterium tuberculosis H37Rv at <=MIC measured after 24 hrs by DiOC2 dye based fluorescence assay; type: cell membranes
[15] = system: Mycobacteroides chelonae; test: Antibacterial activity against Mycobacteroides chelonae ATCC 35752 assessed as growth inhibition at 100 ug/ml incubated for 3 days by microplate alamar blue assay relative to control; type: functional; details: ATCC 35752, 72 h, time 3 day, read-out: GI
[16] = system: Enterococcus faecium; test: Antibacterial activity against Enterococcus faecium by microplate alamar blue assay; type: functional
[17] = system: Staphylococcus aureus; test: Antibacterial activity against Staphylococcus aureus by microplate alamar blue assay; type: functional
[18] = system: Mycobacterium tuberculosis; test: Synergistic antitubercular activity against Mycobacterium tuberculosis H37Rv assessed as isoniazid MIC=>90 at 0.8 ug/ml by microplate alamar blue assay (reference value: 0.12 uM); type: functional; details: dose 0.8 µg/ml
[19] = system: Mycobacterium avium; test: Antibacterial activity against Mycobacterium avium ATCC 15769 incubated for 6 days by microplate alamar blue assay; type: functional; details: ATCC 15769, 144 h, time 6 day
[20] = system: Pseudomonas aeruginosa; test: Antibacterial activity against Pseudomonas aeruginosa by microplate alamar blue assay; type: functional
[21] = Cytotoxicity against African green monkey Vero cells measured after 3 days by resazurin dye based fluorescence assay; type: toxicity, cell-based; details: African green monkey (Chlorocebus sabaeus)
[22] = system: Mycobacterium tuberculosis; test: Synergistic antitubercular activity against Mycobacterium tuberculosis H37Rv assessed as rifampin MIC=>90 at 0.8 ug/ml by microplate alamar blue assay (reference value: 0.06 uM); type: functional; details: dose 0.8 µg/ml
[23] = system: Mycobacterium tuberculosis; test: Antitubercular activity against Mycobacterium tuberculosis KMA 4244 by microplate alamar blue assay; type: functional
[24] = system: Mycobacterium avium; test: Antibacterial activity against Mycobacterium avium ATCC 15769 assessed as growth inhibition at 100 ug/ml incubated for 6 days by microplate alamar blue assay relative to control; type: functional; details: ATCC 15769, 144 h, time 6 day, read-out: GI
[25] = system: Klebsiella pneumoniae; test: Antibacterial activity against Klebsiella pneumoniae by microplate alamar blue assay; type: functional
[26] = system: Mycobacterium kansasii; test: Antibacterial activity against Mycobacterium kansasii ATCC 12478 incubated for 7 days by microplate alamar blue assay; type: functional; details: ATCC 12478, 168 h, time 7 day
[27] = system: Mycobacterium tuberculosis; test: Bactericidal activity against Mycobacterium tuberculosis H37Rv measured up to 7 days by luminescence assay; type: functional; details: time <= 7 day
[28] = system: Mycobacterium tuberculosis; test: Synergistic antitubercular activity against Mycobacterium tuberculosis H37Rv assessed as bedaquiline MIC=>90 at 0.8 ug/ml by microplate alamar blue assay (reference value: 0.05 uM); type: functional; details: dose 0.8 µg/ml
[29] = system: Mycobacterium tuberculosis; test: Antitubercular activity against Mycobacterium tuberculosis KMA 1354 by microplate alamar blue assay; type: functional
[30] = system: Mycobacterium tuberculosis; test: Synergistic antitubercular activity against Mycobacterium tuberculosis H37Rv in presence of bedaquiline by microplate alamar blue assay (reference value: 3.08 uM); type: functional
[31] = system: Acinetobacter baumannii; test: Antibacterial activity against Acinetobacter baumannii by microplate alamar blue assay; type: functional
[32] = system: Mycobacteroides abscessus; test: Antibacterial activity against Mycobacterium abscessus ATCC 19977 incubated for 3 days by microplate alamar blue assay; type: functional; details: ATCC 19977, 72 h, time 3 day
[33] = system: Mycobacterium tuberculosis; test: Antitubercular activity against Mycobacterium tuberculosis H37Rv by microplate alamar blue assay; type: functional
[34] = system: Candida albicans; test: Antifungal activity against Candida albicans by microplate alamar blue assay; type: functional
[35] = system: Mycobacterium tuberculosis; test: Antitubercular activity against Mycobacterium tuberculosis H37Rv assessed as post antibiotic affect up to 100 ug/ml measured daily for up to 14 days by luminescence assay; type: functional, organism-based; details: dose <= 100.0 µg/ml, time <= 14.0 day
[36] = system: Mycobacterium tuberculosis; test: Synergistic antitubercular activity against Mycobacterium tuberculosis H37Rv in presence of rifampin by microplate alamar blue assay (reference value: 2.59 uM); type: functional
[37] = system: Mycobacterium tuberculosis; test: Synergistic antitubercular activity against Mycobacterium tuberculosis H37Rv assessed as isoniazid MIC=>90 at 0.4 ug/ml by microplate alamar blue assay (reference value: 0.12 uM); type: functional; details: dose 0.4 µg/ml
[38] = system: Mycobacterium tuberculosis; test: Synergistic antitubercular activity against Mycobacterium tuberculosis H37Rv assessed as rifampin MIC=>90 at 0.4 ug/ml by microplate alamar blue assay (reference value: 0.06 uM); type: functional; details: dose 0.4 µg/ml
[39] = system: Mycobacterium tuberculosis; test: Synergistic antitubercular activity against Mycobacterium tuberculosis H37Rv in presence of bedaquiline by microplate alamar blue assay (reference value: 2.59 uM); type: functional
[40] = system: Mycobacterium tuberculosis; test: Synergistic antitubercular activity against Mycobacterium tuberculosis H37Rv in presence of isoniazid by microplate alamar blue assay (reference value: 2.59 uM); type: functional
[41] = system: Mycobacterium tuberculosis; test: Synergistic antitubercular activity against Mycobacterium tuberculosis H37Rv assessed as bedaquiline MIC=>90 at 0.4 ug/ml by microplate alamar blue assay (reference value: 0.05 uM); type: functional; details: dose 0.4 µg/ml

SMILES | MIC90 [1] [µg/mL] | inhibition of growth at 100 µg/mL [2] [%] | MIC90 [3] [µg/mL] | Activity [5] | MIC90 [6] [µg/mL] | inhibition of growth at 100 µg/mL [7] [%] | MIC90 [8] [µg/mL] | MIC90 [9] [µg/mL] | MIC90 [10] [µg/mL] | MIC90 [11] [µg/mL] | inhibition of growth at 100 µg/mL [12] [%] | Activity [14] | inhibition of growth at 100 µg/mL [15] [%] | MIC90 [16] [µg/mL] | MIC90 [17] [µg/mL] | MIC90 [19] [µg/mL] | MIC90 [20] [µg/mL] | IC50 at 3 days [21] [µM] | MIC90 [23] [µg/mL] | inhibition of growth at 100 µg/mL [24] [%] | other results
CC(C)N(C(=O)CCNCCC(c1ccccc1)c1ccccc1)C(C)C | > 100 | 0 | 8.73 (≈ 23.8 µM) | inactive | > 100 | 0 | 3.11 (≈ 8.48 µM) | > 100 | 8.79 (≈ 24 µM) | 4.68 (≈ 12.8 µM) | 90 | inactive | 74 | 95.8 (≈ 261 µM) | 96.5 (≈ 263 µM) | > 100 | > 100 | 45.9 | 6.11 (≈ 16.7 µM) | 0 | MIC [4]: 3.06 µg/mL; MIC [13]: 2.01 µg/mL; MIC [18]: 0.12 µM; MIC [22]: 0.04 µM; MIC90 [25]: > 100 µg/mL; MIC90 [26]: > 100 µg/mL; MBC99 [27]: 5.48 mg/mL (≈ 15000 µM); MIC [28]: 0.03 µM; MIC90 [29]: 4.58 µg/mL (≈ 12.5 µM); MIC [30]: 2.99 µg/mL; MIC90 [31]: > 100 µg/mL; MIC90 [32]: > 100 µg/mL; MIC90 [33]: 2.97 µg/mL (≈ 8.1 µM); MIC90 [34]: > 100 µg/mL; Activity [35]: inactive
CC(C)N(C(=O)CCNCCCC1CCCC1)C(C)C | > 100 | 0 | 4.37 (≈ 15.5 µM) | inactive | > 100 | 0 | 1.48 (≈ 5.24 µM) | > 100 | 3.11 (≈ 11 µM) | 1.54 (≈ 5.45 µM) | 26 | inactive | 18 | 49.2 (≈ 174 µM) | 48.1 (≈ 170 µM) | > 100 | > 100 | 69.7 | 2.92 (≈ 10.3 µM) | 0 | MIC [36]: 1.38 µg/mL; MIC [37]: 0.12 µM; MIC [38]: 0.03 µM; MIC [39]: 2.33 µg/mL; MIC [40]: 2.45 µg/mL; MIC90 [25]: > 100 µg/mL; MIC90 [26]: > 100 µg/mL; MIC [41]: 0.04 µM; MBC99 [27]: 3.02 mg/mL (≈ 10700 µM); MIC90 [29]: 1.8 µg/mL (≈ 6.37 µM); MIC90 [31]: > 100 µg/mL; MIC90 [32]: > 100 µg/mL; MIC90 [33]: 1.48 µg/mL (≈ 5.24 µM); MIC90 [34]: 49.6 µg/mL (≈ 176 µM); Activity [35]: inactive
